Test: RP, Thermo Scientific Acclaim RSLC 120 C18, 100 × 2.1 mm, 2.2 µm, 30 °C, 0.2 mL/min, estimated dead time 1.1 min; A: 90% water + 10% methanol + 0.01% formic acid + 5 mM ammonium formate, pH 3.61; B: methanol + 0.01% formic acid + 5 mM ammonium formate, pH 3.61; gradient (min/%B) 0/1 1/1 2/39 13/99.9 15/99.9 15.1/1 20.1/1
Details: stereoisomer not certain

LC retention time	Compound
3.26 min	CNC(CC(C)C)C(=O)NC1C(=O)NC(CC(N)=O)C(=O)NC2C(=O)NC3C(=O)NC(C(=O)NC(C(=O)O)c4cc(O)cc(O)c4-c4cc3ccc4O)C(O)c3ccc(c(Cl)c3)Oc3cc2cc(c3OC2OC(CO)C(O)C(O)C2OC2CC(C)(N)C(O)C(C)O2)Oc2ccc(cc2Cl)C1O (stereo not drawn) [Vancomycin]
6.82 min	NS(=O)(=O)c1cc2c(cc1C(F)(F)F)NC(Cc1ccccc1)NS2(=O)=O (stereo not drawn) [Bendroflumethiazide]
11.6 min	CNC(C)C1CCC(N)C(OC2C(N)CC(N)C(OC3OCC(C)(O)C(NC)C3O)C2O)O1 (stereo not drawn) [Gentamycin]
2.71 min	CC(C)C(N)C(=O)OCC(CO)OCn1cnc2c(=O)[nH]c(N)nc21 (stereo not drawn) [Valganciclovir]
6.2 min	Cc1cc(N(C)C)nc(Cl)n1 [Crimidine]
10.9 min	CCc1cccc(C)c1N(C(=O)CS(=O)(=O)O)C(C)C(=O)O (stereo not drawn)
6.27 min	CC(CC(=O)Nc1ccc(Cl)cc1Cl)N1CCCCC1 (stereo not drawn) [Clibucaine]
5.96 min	CC(C)Nc1nc(NC(C)C)[nH]c(=O)n1 [Propazine-2-hydroxy (Prometon-Hydroxy)]
12 min	CCC(C)C(=O)OC1CC(C)C=C2C=CC(C)C(CCC3CC(O)CC(=O)O3)C21 (stereo not drawn) [Lovastatin]
6.71 min	CN1C(=O)CC(C)(c2ccccc2)C1=O (stereo not drawn) [Methsuximide]
10.5 min	CCCOc1ccc(S(=O)(=O)N2CCN(CC)CC2)cc1-c1nc(=S)c2c([nH]1)c(CCC)nn2C [Propoxyphenyl Thiohomosidenafil]
6.89 min	O=c1c(-c2ccc(O)cc2)coc2cc(O)ccc12 [Daidzein]
7.86 min	Cc1cc(C)cc(OCC2CNC(=O)O2)c1 (stereo not drawn) [Metaxalone]
4.24 min	CCN(CC)CC(C)(C)COC(=O)c1ccc(N)cc1 [Dimethocain]
10.4 min	CCSc1ccc2c(c1)N(CCCN1CCN(C)CC1)c1ccccc1S2 [Thiethylperazine]
4.86 min	NC12CC3CC(CC(C3)C1)C2 [Amantadine]
13.5 min	CCCCCCCCCCCCOCCOCCOCCOCCO [Tetraethylene glycol monododecyl ether]
6.28 min	Cc1ccc(C(=CCN2CCCC2)c2ccccn2)cc1 [Triprolidine]

LC retention time	Compound
3.79 min	OCC(O)CN1CCN(c2ccccc2)CC1 (stereo not drawn) [Dropropizine]
8.38 min	CC1CC2C3CCC4=CC(=O)C=CC4(C)C3(F)C(O)CC2(C)C1(O)C(=O)CO (stereo not drawn) [Dexamethasone]
7.86 min	CN1CCC(=C2c3ccccc3CCc3sccc32)CC1 [Pizotifen]
9.04 min	CC1(C)OC2CC3C4CCC5=CC(=O)C=CC5(C)C4C(O)CC3(C)C2(C(=O)CO)O1 (stereo not drawn) [Desonide]
3.11 min	CC(C)(C)NCC(O)c1cc(O)cc(O)c1 (stereo not drawn) [Terbutaline]
8.59 min	CCCCCCCCCCN(C)C [N,N-Dimethyldecylamine]
5.34 min	CC[N+]([O-])(CC)CC(=O)Nc1c(C)cccc1C [Lidocaine-N-oxide]
4.56 min	Cc1cn(C2CC(N=[N+]=[N-])C(CO)O2)c(=O)[nH]c1=O (stereo not drawn) [Zidovudine]
3.88 min	On1nnc2ccccc21 [Benzotriazole-1-Hydroxy]
14.1 min	CCCCCCCCc1ccc(OCCOCCO)cc1 [Octylphenol diethoxylates (OP2EO)_NH4 adduct]
10.7 min	CNC(=O)C(=NOC)c1ccccc1COc1cc(C)ccc1C [Dimoxystrobin]
7.18 min	O=C(CCCN1CCC(O)(c2ccc(Cl)cc2)CC1)c1ccc(F)cc1 [Haloperidol]
3.73 min	CC1=C(C)S(=O)(=O)CCS1(=O)=O [Dimethipin]
11.8 min	COCCC(N)C(=O)O (stereo not drawn) [AMB]
9.36 min	OCCN(CCO)c1nc(N2CCCCC2)c2nc(N(CCO)CCO)nc(N3CCCCC3)c2n1 [Dipyridamole]
6.63 min	O=C(OCC(O)CO)c1ccccc1Nc1ccnc2cc(Cl)ccc12 (stereo not drawn) [Glaphenine]
8.49 min	CCC(=O)c1ccc2c(c1)N(CCCN(C)C)c1ccccc1S2 [Promazine-Propionyl]
5.61 min	NC(N)=NN=Cc1c(Cl)cccc1Cl [Guanabenz]

Compound	LC retention time
CSc1nnc(C(C)(C)C)c(=O)n1N [Metribuzin]	7.07 min
COP(=S)(OC)Oc1ccc(C#N)cc1 [Cyanophos]	8.27 min
CN1CCN(C(=O)OC2c3nccnc3C(=O)N2c2ccc(Cl)cn2)CC1 (stereo not drawn) [Zopiclone]	4.89 min
CCS(=O)(=O)c1cccnc1S(=O)(=O)NC(=O)Nc1nc(OC)cc(OC)n1 [Rimsulfuron]	7.09 min
c1ccc2c(c1)Sc1ccccc1N2CC1CN2CCC1CC2 (stereo not drawn) [Mequitazine]	8.29 min
CCCCCn1cc(C(=O)NC23CC4CC(CC(C4)C2)C3)c2ccccc21 [APICA]	13.2 min
COC(=O)COc1ccc(Cl)cc1Cl [2.4-D-methylester]	9.61 min
CCc1nn(C)c(C(=O)NCc2ccc(Oc3ccc(C)cc3)cc2)c1Cl [Tolfenpyrad]	12.4 min
CCCN1CC(CSC)CC2c3cccc4[nH]cc(c34)CC21 (stereo not drawn) [Pergolide]	6.19 min
CCOP(=O)(OCC)SCCSCC.CCOP(=S)(OCC)OCCSCC [Demeton]	8.91 min
COc1cc(OC)nc(NC(=O)NS(=O)(=O)c2ncccc2C(F)(F)F)n1 [Flazasulfuron]	8.56 min
O=C1Nc2ccc(Cl)cc2C(c2ccccc2Cl)=NC1O (stereo not drawn) [Lorazepam]	8.36 min
CCS(=O)(=O)Cc1ccccc1OC(=O)NC [Ethiofencarb-sulfone]	4.63 min
CCN(CC)CCOCCOC(=O)C1(c2ccccc2)CCCC1 [Pentoxyverine]	7.87 min
CC(C(=O)c1ccc2c(c1)OCO2)N1CCCC1 (stereo not drawn) [MDPPP (3-4-Methylenedioxy-a-pyrrolidinopropiophenone)]	4.13 min
CNC(C)Cc1ccccc1OC (stereo not drawn) [Methoxyphenamine]	4.69 min
COP(=S)(OC)Oc1ccc(S(N)(=O)=O)cc1 [Cythioate]	6.19 min
CC(C)C1(C)N=C(c2nc3ccccc3cc2C(=O)O)NC1=O (stereo not drawn) [Imazaquin]	6.1 min
CCc1nn(C)c(C(=O)NCc2ccc(C(C)(C)C)cc2)c1Cl [Tebufenpyrad]	12.2 min
CCN(CC)C(=O)SCc1ccc(Cl)cc1 [Thiobencarb]	11.4 min
CC(N)C(O)c1ccccc1 (stereo not drawn) [Cathine / Ephedrine-Nor (Cathin. Phenylpropanolamine)]	3.68 min
C=CCC1=C(C)C(OC(=O)C2C(C=C(C)C(=O)OC)C2(C)C)CC1=O (stereo not drawn) [Allethrin II]	12.3 min
CC(C)C(NC(=O)c1nn(CC2CCCCC2)c2ccccc12)C(N)=O (stereo not drawn) [AB-CHMINACA]	11.3 min
CCOP(=S)(OCC)SCCSCC [Disulfoton]	11.5 min
COc1cc(CCN)cc(OC)c1OC [Mescaline]	3.88 min
O=C(NC(=O)c1c(F)cccc1F)Nc1ccc(Cl)cc1 [Diflubenzuron]	10.6 min
COP(=O)(OC)OC(Br)C(Cl)(Cl)Br (stereo not drawn) [Naled]	8.55 min

— the RepoRT retention time repository (doi:10.1021/acs.analchem.2c02893)
